Active and inactive are the calls of the source. The calls are words filed in the database; no cut-off is given here.
What was measured:
[1] = target: Dual specificity mitogen-activated protein kinase kinase 2 (Homo sapiens) (UniProt P36507); test: Inhibition of MEK2 at 2 uM
[2] = target: Mitogen-activated protein kinase 8 (Homo sapiens) (UniProt P45983); test: Inhibition of JNK1 at 2 uM
[3] = Half life in beagle dog at 13.8 mg/kg, iv; assay type: ADME, organism-based, Canis lupus familiaris; set-up: dose 13.8 mg/kg, route intravenous; settings: in vivo
[4] = Half life in BALB/c mouse at 40 mg/kg, po; assay type: ADME, organism-based; set-up: dose 40 mg/kg, route oral; settings: in vivo
[5] = target: Protein kinase C iota type (Homo sapiens) (UniProt P41743); settings: 2 uM
Description: Inhibition of PKCiota at 2 uM

[6] = target: Casein kinase I isoform alpha (Homo sapiens) (UniProt P48729); test: Inhibition of CK1 at 2 uM
[7] = Inhibition of Gsk3 by filter binding assay
[8] = target: Cytochrome P450 2C19 (Homo sapiens, UniProt P33261); test: Inhibition of human CYP2C19; assay type: ADME
[9] = Cmax in BALB/c mouse at 40 mg/kg, po; assay type: ADME, organism-based; set-up: dose 40 mg/kg, route oral; settings: in vivo
[10] = target: Protein kinase C beta type (Homo sapiens) (UniProt P05771); test: Inhibition of PKCb2 at 2 uM
[11] = target: Mitogen-activated protein kinase 11 (Homo sapiens) (UniProt Q15759); settings: 100 uM
[12] = target: Rho-associated protein kinase 2 (Homo sapiens) (UniProt O75116); test: Inhibition of ROCK2 at 2 uM
[13] = Half life in Sprague-Dawley rat at 43 mg/kg, po; assay type: ADME, organism-based; set-up: dose 43 mg/kg, route oral; settings: in vivo
[14] = target: Fibroblast growth factor receptor 3 (Homo sapiens) (UniProt P22607); test: Inhibition of FGFR3 at 2 uM
[15] = target: Cytochrome P450 2C9 (Homo sapiens, UniProt P11712); test: Inhibition of human CYP2C9; assay type: ADME
[16] = Inhibition of PKA by filter binding assay
[17] = system: Mus musculus; test: Antiarthritic activity in complete Freund's adjuvant-immunized DBA/1J mouse assessed as inhibition of type 2 collagen-induced paw inflammation at 10 mg/kg, po bid measured on day 20; assay type: functional; settings: 480 h
[18] = target: Mitogen-activated protein kinase 3 (Homo sapiens) (UniProt P27361); settings: 2 uM
Description: Inhibition of ERK1 at 2 uM

[19] = target: Angiopoietin-1 receptor (Homo sapiens) (UniProt Q02763); settings: 2 uM
Description: Inhibition of Tie2 at 2 uM

[20] = system: Mus musculus; test: Antiarthritic activity in complete Freund's adjuvant-immunized DBA/1J mouse assessed as inhibition of type 2 collagen-induced bone and cartilage erosion at 10 mg/kg, po bid measured on day 20; assay type: functional; settings: 480 h
[21] = system: Mus musculus; test: Antiarthritic activity in complete Freund's adjuvant-immunized DBA/1J mouse assessed as inhibition of type 2 collagen-induced paw inflammation at […], po bid measured on day 20; assay type: functional; settings: 480 h, dose 2.5 mg/kg
[22] = target: Serine/threonine-protein kinase PAK 2 (Homo sapiens) (UniProt Q13177); settings: 2 uM
Description: Inhibition of PAK2 at 2 uM

[23] = target: Mitogen-activated protein kinase 1 (Homo sapiens) (UniProt P28482); test: Inhibition of ERK2 using ATGPLSPGPFGRR as substrate at 100 uM by spectrophotometric enzyme-coupled assay
[24] = Clearance in BALB/c mouse at 2 mg/kg, iv; assay type: ADME, organism-based; set-up: dose 2 mg/kg, route intravenous; settings: in vivo
[25] = Oral bioavailability in Sprague-Dawley rat at 43 mg/kg; assay type: ADME, organism-based; settings: in vivo
[26] = target: Inhibitor of nuclear factor kappa-B kinase subunit alpha (Homo sapiens) (UniProt O15111); settings: 2 uM
Description: Inhibition of IKKa at 2 uM

[27] = target: Mitogen-activated protein kinase 11 (Homo sapiens) (UniProt Q15759); settings: 2 uM
Description: Inhibition of p38beta at 2 uM

[28] = target: Cytochrome P450 1A2 (Homo sapiens, UniProt P05177); test: Inhibition of human CYP1A2; assay type: ADME
Chain of Cytochrome P450 1A2 (P05177 whole entry): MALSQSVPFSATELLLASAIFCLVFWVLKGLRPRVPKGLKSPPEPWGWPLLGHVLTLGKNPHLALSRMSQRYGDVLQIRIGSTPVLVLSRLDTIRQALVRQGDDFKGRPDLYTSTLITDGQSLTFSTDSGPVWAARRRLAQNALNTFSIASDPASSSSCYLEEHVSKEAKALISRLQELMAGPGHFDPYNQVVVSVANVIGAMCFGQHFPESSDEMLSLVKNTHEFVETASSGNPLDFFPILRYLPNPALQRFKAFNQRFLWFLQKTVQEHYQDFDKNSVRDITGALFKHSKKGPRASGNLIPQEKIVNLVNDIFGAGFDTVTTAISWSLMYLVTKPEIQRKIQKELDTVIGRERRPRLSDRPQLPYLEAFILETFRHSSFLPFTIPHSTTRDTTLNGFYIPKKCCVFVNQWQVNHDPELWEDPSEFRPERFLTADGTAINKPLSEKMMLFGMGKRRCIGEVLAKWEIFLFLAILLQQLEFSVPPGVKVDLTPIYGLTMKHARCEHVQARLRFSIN

Chain of Mitogen-activated protein kinase 11 (Homo sapiens) (Q15759 whole entry): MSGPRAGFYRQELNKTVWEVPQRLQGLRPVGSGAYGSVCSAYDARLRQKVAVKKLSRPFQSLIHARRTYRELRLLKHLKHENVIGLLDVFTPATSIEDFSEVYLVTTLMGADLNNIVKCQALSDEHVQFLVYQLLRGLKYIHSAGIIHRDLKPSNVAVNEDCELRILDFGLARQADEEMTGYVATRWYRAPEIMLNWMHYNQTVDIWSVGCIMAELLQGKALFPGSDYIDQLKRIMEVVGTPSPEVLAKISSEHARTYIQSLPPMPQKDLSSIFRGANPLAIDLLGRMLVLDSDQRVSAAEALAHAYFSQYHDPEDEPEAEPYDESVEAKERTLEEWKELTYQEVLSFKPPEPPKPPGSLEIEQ
Chain of Serine/threonine-protein kinase PAK 2 (Homo sapiens) (Q13177 whole entry): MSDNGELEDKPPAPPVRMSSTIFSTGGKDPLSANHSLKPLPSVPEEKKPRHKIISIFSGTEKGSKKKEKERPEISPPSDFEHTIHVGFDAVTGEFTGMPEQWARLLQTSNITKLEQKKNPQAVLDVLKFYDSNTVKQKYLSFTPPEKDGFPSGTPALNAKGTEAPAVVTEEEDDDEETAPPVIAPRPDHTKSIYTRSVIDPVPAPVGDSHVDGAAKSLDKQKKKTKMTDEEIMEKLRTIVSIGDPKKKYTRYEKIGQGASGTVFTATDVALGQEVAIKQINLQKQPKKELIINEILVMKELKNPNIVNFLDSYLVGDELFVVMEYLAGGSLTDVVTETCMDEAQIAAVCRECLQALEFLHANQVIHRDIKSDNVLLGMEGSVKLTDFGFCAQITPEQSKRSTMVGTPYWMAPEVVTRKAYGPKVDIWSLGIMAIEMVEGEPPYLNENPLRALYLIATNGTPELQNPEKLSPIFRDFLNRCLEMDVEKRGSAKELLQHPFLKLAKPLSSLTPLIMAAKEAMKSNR
Chain of Casein kinase I isoform alpha (Homo sapiens) (P48729 2-337 limits assumed): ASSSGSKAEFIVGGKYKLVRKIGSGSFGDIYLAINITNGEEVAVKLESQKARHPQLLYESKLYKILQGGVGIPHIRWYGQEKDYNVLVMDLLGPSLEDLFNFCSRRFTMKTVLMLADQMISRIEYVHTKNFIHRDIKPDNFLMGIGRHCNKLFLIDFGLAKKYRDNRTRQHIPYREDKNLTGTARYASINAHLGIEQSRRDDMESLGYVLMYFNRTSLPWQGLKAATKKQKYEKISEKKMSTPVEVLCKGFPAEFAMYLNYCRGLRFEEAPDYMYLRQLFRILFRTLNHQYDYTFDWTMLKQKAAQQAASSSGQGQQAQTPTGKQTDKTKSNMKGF
Chain of Cytochrome P450 2C19 (P33261 whole entry): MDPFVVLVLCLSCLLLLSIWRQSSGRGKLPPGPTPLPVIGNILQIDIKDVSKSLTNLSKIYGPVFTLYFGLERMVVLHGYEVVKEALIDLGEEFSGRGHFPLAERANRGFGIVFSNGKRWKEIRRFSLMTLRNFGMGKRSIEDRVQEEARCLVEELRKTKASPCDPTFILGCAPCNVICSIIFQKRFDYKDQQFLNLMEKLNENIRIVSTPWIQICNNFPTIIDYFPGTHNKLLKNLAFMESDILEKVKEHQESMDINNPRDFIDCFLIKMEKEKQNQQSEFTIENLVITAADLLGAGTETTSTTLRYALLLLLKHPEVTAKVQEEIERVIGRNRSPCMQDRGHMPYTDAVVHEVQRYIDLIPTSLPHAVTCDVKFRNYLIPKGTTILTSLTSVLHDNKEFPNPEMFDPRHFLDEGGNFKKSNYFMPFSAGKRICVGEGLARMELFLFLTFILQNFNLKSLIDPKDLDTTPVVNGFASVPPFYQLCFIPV
Chain of Mitogen-activated protein kinase 3 (Homo sapiens) (P27361 whole entry): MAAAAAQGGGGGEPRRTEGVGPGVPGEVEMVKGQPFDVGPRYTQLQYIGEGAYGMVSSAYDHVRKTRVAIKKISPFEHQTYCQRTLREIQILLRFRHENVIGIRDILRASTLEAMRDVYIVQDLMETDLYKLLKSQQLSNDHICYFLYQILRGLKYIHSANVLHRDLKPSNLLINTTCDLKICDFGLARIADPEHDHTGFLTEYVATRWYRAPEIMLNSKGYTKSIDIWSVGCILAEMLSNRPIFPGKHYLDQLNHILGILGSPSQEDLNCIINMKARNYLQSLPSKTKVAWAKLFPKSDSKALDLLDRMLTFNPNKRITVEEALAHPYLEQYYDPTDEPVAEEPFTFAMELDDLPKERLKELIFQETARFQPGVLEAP
Chain of Cytochrome P450 2C9 (P11712 whole entry): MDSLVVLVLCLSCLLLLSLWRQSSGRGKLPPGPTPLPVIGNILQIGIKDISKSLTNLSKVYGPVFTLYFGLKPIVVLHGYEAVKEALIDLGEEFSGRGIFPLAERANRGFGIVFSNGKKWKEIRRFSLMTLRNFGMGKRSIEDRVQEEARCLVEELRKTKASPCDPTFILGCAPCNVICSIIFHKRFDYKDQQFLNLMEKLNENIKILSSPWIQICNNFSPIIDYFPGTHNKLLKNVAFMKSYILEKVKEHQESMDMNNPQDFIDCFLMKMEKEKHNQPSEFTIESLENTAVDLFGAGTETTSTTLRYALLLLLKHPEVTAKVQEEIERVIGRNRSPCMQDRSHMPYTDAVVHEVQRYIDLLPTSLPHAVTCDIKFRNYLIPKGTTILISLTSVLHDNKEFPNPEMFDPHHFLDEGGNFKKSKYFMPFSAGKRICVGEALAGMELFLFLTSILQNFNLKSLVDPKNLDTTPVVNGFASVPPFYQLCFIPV
Chain of Protein kinase C beta type (Homo sapiens) (P05771 2-671 limits assumed): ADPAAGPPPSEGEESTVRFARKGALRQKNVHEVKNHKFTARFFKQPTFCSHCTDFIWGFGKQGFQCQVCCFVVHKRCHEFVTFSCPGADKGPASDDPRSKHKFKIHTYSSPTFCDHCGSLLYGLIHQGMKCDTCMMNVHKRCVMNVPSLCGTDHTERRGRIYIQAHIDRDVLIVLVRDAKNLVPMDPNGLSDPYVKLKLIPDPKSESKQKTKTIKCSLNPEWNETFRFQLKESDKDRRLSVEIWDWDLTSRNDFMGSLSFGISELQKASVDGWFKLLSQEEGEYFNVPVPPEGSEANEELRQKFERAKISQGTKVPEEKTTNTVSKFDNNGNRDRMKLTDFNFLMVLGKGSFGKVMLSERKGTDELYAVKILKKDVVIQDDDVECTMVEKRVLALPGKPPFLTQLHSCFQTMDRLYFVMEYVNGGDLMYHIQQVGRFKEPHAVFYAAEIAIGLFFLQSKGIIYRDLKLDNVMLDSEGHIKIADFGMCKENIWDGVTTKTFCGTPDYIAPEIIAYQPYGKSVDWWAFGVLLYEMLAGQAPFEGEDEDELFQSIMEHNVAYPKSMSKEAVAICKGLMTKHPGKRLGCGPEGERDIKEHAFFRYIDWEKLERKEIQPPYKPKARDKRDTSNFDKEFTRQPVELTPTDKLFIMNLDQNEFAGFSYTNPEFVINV
Chain of Dual specificity mitogen-activated protein kinase kinase 2 (Homo sapiens) (P36507 whole entry): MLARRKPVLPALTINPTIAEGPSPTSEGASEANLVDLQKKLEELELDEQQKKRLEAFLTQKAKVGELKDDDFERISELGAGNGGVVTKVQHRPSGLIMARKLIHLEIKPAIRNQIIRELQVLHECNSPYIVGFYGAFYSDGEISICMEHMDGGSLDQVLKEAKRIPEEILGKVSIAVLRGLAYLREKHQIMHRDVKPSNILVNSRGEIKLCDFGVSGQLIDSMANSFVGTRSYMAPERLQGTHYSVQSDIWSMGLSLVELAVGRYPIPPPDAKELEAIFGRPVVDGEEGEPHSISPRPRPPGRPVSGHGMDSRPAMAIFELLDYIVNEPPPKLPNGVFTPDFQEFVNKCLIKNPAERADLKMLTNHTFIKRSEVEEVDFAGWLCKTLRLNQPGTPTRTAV
Chain of Mitogen-activated protein kinase 8 (Homo sapiens) (P45983 whole entry): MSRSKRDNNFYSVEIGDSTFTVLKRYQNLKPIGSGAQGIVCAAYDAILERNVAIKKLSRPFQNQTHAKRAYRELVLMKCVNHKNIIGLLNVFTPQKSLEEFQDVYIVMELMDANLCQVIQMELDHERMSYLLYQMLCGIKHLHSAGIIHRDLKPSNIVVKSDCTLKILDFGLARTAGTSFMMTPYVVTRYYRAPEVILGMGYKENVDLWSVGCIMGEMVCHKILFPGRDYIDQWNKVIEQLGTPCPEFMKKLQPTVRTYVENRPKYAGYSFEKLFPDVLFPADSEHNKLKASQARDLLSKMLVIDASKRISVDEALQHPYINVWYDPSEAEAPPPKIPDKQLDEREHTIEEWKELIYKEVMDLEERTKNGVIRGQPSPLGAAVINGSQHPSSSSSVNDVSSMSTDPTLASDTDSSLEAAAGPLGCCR
Chain of Mitogen-activated protein kinase 1 (Homo sapiens) (P28482 whole entry): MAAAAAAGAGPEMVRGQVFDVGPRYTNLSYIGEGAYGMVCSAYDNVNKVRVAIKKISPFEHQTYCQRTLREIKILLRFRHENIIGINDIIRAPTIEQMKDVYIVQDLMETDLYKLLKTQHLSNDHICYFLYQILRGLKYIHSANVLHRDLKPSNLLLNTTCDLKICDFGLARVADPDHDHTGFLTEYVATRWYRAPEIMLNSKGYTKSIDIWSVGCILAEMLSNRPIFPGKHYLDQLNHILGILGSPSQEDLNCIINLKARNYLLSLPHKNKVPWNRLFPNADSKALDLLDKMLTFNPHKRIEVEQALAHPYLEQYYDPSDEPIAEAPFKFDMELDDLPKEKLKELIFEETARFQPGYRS

In the case of `O=c1ncn2nc(Sc3ccc(F)cc3F)ccc2c1-c1c(Cl)cccc1Cl` [NEFLAMAPIMOD], the inhibition [1] is reported as 14%, the inhibition [2] is reported as 10% and the half-life [3] is reported as 1.5 h. The half-life [4] was 4.5 h, the inhibition [5] was 0% and the inhibition [6] was 1%. The IC50 [7] was over 5 µM, the IC50 [8] was over 40 µM and the Cmax [9] was 7850 ng/mL. For the same compound, the inhibition [10] was 5%, the inhibition [11] was “inactive” and the inhibition [12] was 8%. It also gave a half-life [13] of 4.5 h, an inhibition [14] of 20% and an IC50 [15] of over 40 µM. The IC50 [16] was over 5 µM, the inhibition in vivo at 10 mg/kg [17] was 44% and the inhibition [18] was 0%. It also gave an inhibition [19] of 0%, an inhibition in vivo at 10 mg/kg [20] of 39% and an inhibition in vivo at […] [21] of 27%. The inhibition [22] was 0%, the inhibition [23] was “inactive” and the clearance [24] was 21 mL/min/kg. It also gave a bioavailability [25] of 56%, an inhibition [26] of 0% and an inhibition [27] of 84%. For the same compound, the IC50 [28] was over 40 µM.

— ChEMBL document CHEMBL2021894, “The Discovery of VX-745: A Novel and Selective p38α Kinase Inhibitor” (ACS Med Chem Lett, 2011)
